Publication PMC5484788, “Development of a common carp (Cyprinus carpio) pregnane X receptor (cPXR) transactivation reporter assay and its activation by azole fungicides and pharmaceutical chemicals” (Toxicology in Vitro, 2017)
Where two headings read alike, the source gives them in different places.

What was measured:
[1] = target: T1, hPXR (Homo sapiens, UniProt O75469); assay: human PXR (hPXR) luciferase transactivation reporter assay, pGL4.24-6xPXRE reporter, COS-7 cells; settings: for maximal effect (Emax) hPXR, times that of the control: COS-7 cells, 44 h, relative to DMSO control
T1 sequence (O75469 1-473 isoform O75469-7): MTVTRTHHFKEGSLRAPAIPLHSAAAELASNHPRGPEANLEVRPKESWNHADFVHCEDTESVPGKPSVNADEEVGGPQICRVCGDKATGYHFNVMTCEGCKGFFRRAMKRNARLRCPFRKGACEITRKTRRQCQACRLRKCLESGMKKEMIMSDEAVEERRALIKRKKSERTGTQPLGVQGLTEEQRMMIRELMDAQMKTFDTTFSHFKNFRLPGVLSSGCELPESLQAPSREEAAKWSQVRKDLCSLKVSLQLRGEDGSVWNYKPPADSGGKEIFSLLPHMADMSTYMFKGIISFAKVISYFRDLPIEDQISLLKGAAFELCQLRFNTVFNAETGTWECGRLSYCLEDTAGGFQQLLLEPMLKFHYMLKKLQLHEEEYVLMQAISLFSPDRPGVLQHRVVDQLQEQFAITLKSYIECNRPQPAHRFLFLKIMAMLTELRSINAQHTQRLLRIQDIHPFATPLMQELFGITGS
Protocol: Human PXR (hPXR) clone cDNA was purchased from Promega. […] The following PCR protocol was employed: 21 cycles of denaturation at 98 °C for 10 s, annealing at 60 °C for 5 s and elongation at 72 °C for 15 s. The purified product was then ligated into the eukaryotic expression vector pcDNA3.1(+) (Invitrogen) using the correspondent restriction enzymes and T4 DNA ligase (Promega).
(§1) A reporter vector was constructed based on several variations of the PXR response element (PXRE; Fig. 1). The PXRE occurs either as a direct or everted repeat of the consensus motif […], spaced by between 3 and 8 nucleotides. The PXRE sequence created here was based on that reported in [Xie et al. (2000)]. […] To maximise reporter efficiency, a further PXRE motif was added either side of the previously generated long chain oligo using PCR. […] The following PCR conditions were employed: 21 cycles of denaturation at 98 °C for 10 s, annealing at 60 °C for 5 s and elongation at 72 °C for 30 s. After purification, and using the appropriate restriction enzymes KpnI and HindIII, the obtained fragment was subsequently ligated into the pGL4.24[luc2P/minP] vector (Promega) which contains the firefly (Photinus pyralis) luciferase (luc2P) gene, to create the pGL4.24-6xPXRE reporter construct.
(§2) The cells were maintained at subconfluent densities and sub-cultured when reaching 80% confluency.
(§3) For transfection assays, cells were seeded in 24-well plates at 5 × 10^4 cells well^− 1 in phenol-red free DMEM (supplemented with 10% charcoal/dextran-treated foetal bovine serum (Hyclone). After 24 h, the cells were transiently transfected with 200 ng of either pcDNA3.1(+)/cPXR or pcDNA3.1(+)/hPXR, 400 ng of reporter construct (either MMTV/luc2/pGL4 (Promega) or pGL4.24-6xPXRE) and 100 ng of pRL-TK (driving the Renilla reniformis luciferase gene as an internal control to normalise for variations in transfection efficiency) using Fugene HD transfection reagent (Promega) in serum-free medium according to the manufacturer's protocol. Four hours after transfection, cells were treated with PXR agonists (see below). Forty-eight hours after transfection, cells were lysed and the luciferase activities of the cells were measured by a chemiluminescence assay with Dual-Luciferase Reporter Assay System (Promega) according to the manufacturer's instructions. Luminescence was measured using an Infinite 200 Pro plate reader (Tecan, Grödig, Austria). Promoter activity was calculated as firefly (Photinus pyralis)-luciferase activity/sea pansy (R. reniformis)-luciferase activity. All transfections were done at least three times, employing triplicate sample points in each experiment.
(§4) In addition to the pGL4.24-6xPXRE reporter construct, a commercially available MMTV/luc2/pGL4 reporter vector (Promega) was tested as a reporter plasmid (i.e. for PXRE function), as it is known to contain various nuclear receptor response elements in the promoter region.

[2] = target: cPXR (Cyprinus carpio, UniProt A0A1P8P0E9); assay: carp PXR (cPXR) luciferase transactivation reporter assay, pGL4.24-6xPXRE reporter, COS-7 cells; settings: for transactivation of cPXR (result in words): concentration-response 10^-11 to 10^-5 M, pGL4.24-6xPXRE reporter
Protocol: For this, cDNA was reverse transcribed from 1 μg of carp liver total RNA as described above and amplified using the Advantage 2 DNA polymerase mix (Clontech) according to the manufacturer's instructions. The resulting PCR product was purified and sequenced to confirm the full sequence length and sub-cloned into pGEM-T Easy vector (Promega) following the manufacturer's recommendations. Plasmid DNA was isolated using the Wizard Plus SV minipreps DNA Purification system (Promega) according to manufacturer's instructions. Using the BamHI and EcoRV sites, the cPXR sequences was subsequently ligated into the eukaryotic expression vector pcDNA3.1(+) (Invitrogen) using the correspondent restriction enzymes (New England Biolabs, Hitchin, UK) and T4 DNA ligase (Promega).
as §1, §2, §3, §4

[3] = test system: COS-7 cells; assay: toxicity to COS-7 cells in the transactivation assays (inhibited cell growth); assay type: cell-based; settings: 100 μM, in both cPXR and hPXR assays
[4] = test system: PXR from the pufferfish; settings: 50 μM; ref Milnes et al., 2008; cited from earlier work
[5] = test system: zebrafish PXR; settings: ref Bainy et al., 2013, cited from earlier work
[6] = test system: FHM PXR; design: method as in Milnes et al., 2008; settings: exposure to 50 μM; ref Milnes et al., 2008; cited from earlier work
[7] = concentration-response 10^-11 to 10^-5 M, pGL4.24-6xPXRE reporter

Chain of cPXR (A0A1P8P0E9 entry or part of it): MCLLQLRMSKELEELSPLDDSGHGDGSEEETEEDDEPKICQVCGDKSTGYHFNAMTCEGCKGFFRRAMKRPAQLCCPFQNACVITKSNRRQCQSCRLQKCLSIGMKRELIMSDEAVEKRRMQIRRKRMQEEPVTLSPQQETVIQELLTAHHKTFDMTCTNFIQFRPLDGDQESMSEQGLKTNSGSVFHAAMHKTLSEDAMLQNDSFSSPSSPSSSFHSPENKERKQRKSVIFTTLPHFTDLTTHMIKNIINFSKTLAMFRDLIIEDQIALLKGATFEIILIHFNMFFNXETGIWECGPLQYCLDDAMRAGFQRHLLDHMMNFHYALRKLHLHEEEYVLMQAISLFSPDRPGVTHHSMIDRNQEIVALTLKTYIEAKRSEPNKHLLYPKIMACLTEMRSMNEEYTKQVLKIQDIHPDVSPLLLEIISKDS

| SMILES | transactivation of hPXR (result in words) [1, 7] | transactivation of cPXR (result in words) [2] | also measured |
| --- | --- | --- | --- |
| CC(C)NCC(O)COc1ccc(CC(N)=O)cc1 (stereo not shown) [ATN, atenolol] | did not induce transactivation | did not induce transactivation | – |
| CC/C(=C(\c1ccccc1)c1ccc(OCCN(C)C)cc1)c1ccccc1 [TAM, tamoxifen] | – | had no effect | toxicity to COS-7 cells (inhibited cell growth) [3]: toxic |
| CC(=O)N1CCN(c2ccc(OCC3COC(Cn4ccnc4)(c4ccc(Cl)cc4Cl)O3)cc2)CC1 (stereo not shown) [KTZ, ketoconazole] | had no effect | had no effect | – |
| Clc1ccc(COC(Cn2ccnc2)c2ccc(Cl)cc2Cl)c(Cl)c1 (stereo not shown) [MCZ, miconazole] | induced transactivational activity | – | – |
| CO[C@H]1/C=C/O[C@@]2(C)Oc3c(C)c(O)c4c(O)c(c(/C=N/N5CCN(C)CC5)c(O)c4c3C2=O)NC(=O)/C(C)=C\C=C\[C@H](C)[C@H](O)[C@@H](C)[C@@H](O)[C@@H](C)[C@H](OC(C)=O)[C@@H]1C [RIF, rifampicin] | – | not activated | activation of hPXR compared with control, single concentration ([1]; 1 μM (10^-6 M), pGL4.24-6xPXRE reporter, reporter plasmid comparison): significant activation; maximal effect (Emax) hPXR, times that of the control ([1]; pGL4.24-6xPXRE reporter): 6.4 x-fold; activation of pufferfish PXR [4]: activate |
| Cc1ccc(C)c(OCCCC(C)(C)C(=O)O)c1 [GEM, gemfibrozil] | did not induce transactivation | did not induce transactivation | – |
| CC(C)NCC(O)COc1cccc2ccccc12 (stereo not shown) [Propranolol, propranolol] | – | – | EC50 [1]: 44 nM |
| CCCC1COC(Cn2cncn2)(c2ccc(Cl)cc2Cl)O1 (stereo not shown) [PCZ, propiconazole] | induced transactivational activity | induced transactivational activity | EC50 [2]: 213 nM |
| O=C(O)Cc1ccccc1Nc1c(Cl)cccc1Cl [DIC, diclofenac] | – | did not induce transactivation | transactivation of hPXR (result in words) [1]: did not induce transactivation |
| C#C[C@]1(O)CC[C@H]2[C@@H]3CCc4cc(O)ccc4[C@H]3CC[C@@]21C [EE2, 17α-ethinyloestradiol] | – | activated | concentration at which transactivation of hPXR was induced [1]: 10 µM; transactivation of hPXR (result in words) [1]: activate hPXR; concentration at which transactivation of cPXR was induced ([2]; only concentration giving induction, range 10^-11 to 10^-5 M): 10 µM |
| Clc1ccccc1C(c1ccccc1)(c1ccccc1)n1ccnc1 [CTZ, clotrimazole] | – | – | EC50 [1]: 880 nM; maximal effect (Emax) hPXR, times that of the control ([1]; pGL4.24-6xPXRE reporter): 4.8 x-fold; zebrafish PXR up-regulation above controls ([5]; exposure concentrations between 0.5 and 50 μM, Milnes et al., 2008, Moore et al., 2000): 8 fold; lower activation of zebrafish full-length PXR compared with zebrafish PXR-LBD construct [5]: 90%; FHM PXR up-regulation [6]: up to 35 times |
| CC(C)(Oc1ccc(Cl)cc1)C(=O)O [CFA, clofibric acid] | did not induce transactivation | did not induce transactivation | – |
| CC(C)Cc1ccc(C(C)C(=O)O)cc1 (stereo not shown) [IBU, ibuprofen] | – | did not induce transactivation | – |
